# From patent US20260216348A1, “IRAK DEGRADATION AGENT AND USE THEREOF” (Increland, priority 2023, published 2026)
# Columns and labels:
# [1] = test system: LPS/IL-1β-induced IL-6 secretion in human peripheral blood mononuclear cells (PBMCs); test: Inhibition of LPS/IL-1β-induced IL-6 secretion in human PBMCs (IL-6 ELISA); format: cell-based; settings: PBMC, LPS 10 ng/mL + IL-1β 20 ng/mL, 24 h pre-incubation, 20 h stimulation
# Procedure: This experiment was carried out in RPMI 1640 medium containing 10% FBS and 1% penicillin/streptomycin, with each of the compounds at an initial test concentration of 1 μM.
# The compound was dissolved in DMSO to prepare a stock solution, which was serially diluted into some working solutions with a 5-fold concentration gradient using the culture medium and then added to a 96-well plate at 10 μL per well. PBMCs (Batch No.: P122101102C; Milecell Biotechnology Inc.) were counted and diluted to a cell concentration of about 1.3×10^6 cells/mL, and then added to the aforementioned compound-containing 96-well plate at 150 μL per well. The system was mixed well and incubated in a 5% CO2 incubator at 37° C. for 24 h. Then 5 μL of LPS (final concentration: 10 ng/mL) and 5 μL of IL-1β (final concentration: 20 ng/mL) were added to each well, respectively, and the culture was continued for 20 h in a 5% CO2 incubator at 37° C. After incubation, the 96-well plate was centrifuged at 2000 rpm for 4 min. The supernatant was collected and diluted 200-fold, then detected using an IL-6 ELISA kit. The OD450 values were read, and converted to IL-6 concentrations based on a standard curve. The dose-response curves were fitted using GraphPad 8.0 to calculate the IC50 values.
# IRAK4 = biological target: T1, IRAK4 (Homo sapiens, UniProt Q9NWZ3); test: IRAK4 protein degradation in THP1 cells (Western blot); format: cell-based; settings: THP-1 cells, 24 h
# T1 construct: Effect of the Compounds on IRAK4 Protein Degradation in THP1 Cells; endogenous in cells; host or cells: THP-1 cells
# T1 sequence (Q9NWZ3 1-460): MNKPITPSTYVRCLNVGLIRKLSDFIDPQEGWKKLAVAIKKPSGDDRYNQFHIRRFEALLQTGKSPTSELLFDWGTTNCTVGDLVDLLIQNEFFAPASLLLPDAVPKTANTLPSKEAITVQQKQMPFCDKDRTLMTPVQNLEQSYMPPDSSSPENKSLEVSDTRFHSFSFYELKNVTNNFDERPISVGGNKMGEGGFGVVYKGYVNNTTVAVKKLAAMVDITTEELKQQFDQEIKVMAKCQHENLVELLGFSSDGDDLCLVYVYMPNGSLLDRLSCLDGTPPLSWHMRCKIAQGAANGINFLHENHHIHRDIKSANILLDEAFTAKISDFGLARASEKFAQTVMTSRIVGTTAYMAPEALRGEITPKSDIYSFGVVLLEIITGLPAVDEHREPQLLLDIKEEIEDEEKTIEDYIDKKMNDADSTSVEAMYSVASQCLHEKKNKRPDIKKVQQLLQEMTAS
# Procedure: THP-1 cells were seeded into a 96-well cell culture plate, with 2×10^5 cells and 90 μL of culture medium per well. The cell culture plate was cultured in an incubator with 5% CO2 at 37° C. overnight. The compound was dissolved in DMSO to prepare a stock solution, which was serially diluted into a series of working solutions with a 5-fold concentration gradient using the culture medium and then added to the aforementioned 96-well plate at 10 μL per well. The cell culture plate was further incubated for 24 h in a 5% CO2 incubator at 37° C. After incubation, the 96-well plate was centrifuged and the supernatant was discarded, followed by adding 40 μL of cell lysis buffer containing […]/phosphatase inhibitors to each well for sufficient lysis on an ice bath. Protein quantification was performed using the BCA protein quantification kit, followed by the preparation of Western blot samples. […] After electrophoresis, protein transfer was performed using a PVDF membrane under ice bath conditions for 1 h. After the transfer was completed, the PVDF membrane was blocked with gentle shaking in 5% skim milk at room temperature for 1 h. After blocking, the PVDF membrane was incubated with the primary antibody overnight with gentle shaking at 4° C. The PVDF membrane was washed 3 times with TBST, then the secondary antibody was added and incubated for 1 h with gentle shaking at room temperature, followed by washing of the PVDF membrane with TBST for 3 times. After the washes were completed, the chemiluminescent substrate was added; the PVDF membrane was scanned using a Clinx imager, semi-quantitative analysis was performed with ImageJ software, and the DC50 was calculated using GraphPad Prism 8.0.
DC50 (IRAK4) [nM],SMILES,IC50 [1] [nM]
0.79,CN(C)c1cc2nn([C@H]3CC[C@H](CN4CC[C@H](n5cc6ccc(C7CCC(=O)NC7=O)cc6n5)[C@H](F)C4)CC3)cc2cc1NC(=O)c1cnn2cccnc12 (stereo partly shown) [TM-153],6.79
0.81,CN(C)c1cc2nn([C@H]3CC[C@H](CN4CC[C@H](n5cc6cc(N7CCC(=O)NC7=O)c(F)cc6n5)[C@@H](F)C4)CC3)cc2cc1NC(=O)c1cnn2cccnc12 [TM-131],5.07
1.2,CN(C)c1cc2nn([C@H]3CC[C@H](CN4CC[C@H](n5cc6cc(N7CCC(=O)NC7=O)ccc6n5)[C@H](F)C4)CC3)cc2cc1NC(=O)c1cnn2cccnc12 [TM-18],3.72
0.95,CN(C)c1cc2nn([C@H]3CC[C@H](CN4CC5(CC(n6cc7ccc(N8CCC(=O)NC8=O)cc7n6)C5)C4)CC3)cc2cc1NC(=O)c1cnn2cccnc12 [TM-215],–
9.64,CN(C)c1cc2nn([C@H]3CC[C@H](CN4CCCN(c5nc6cc(N7CCC(=O)NC7=O)ccc6s5)CC4)CC3)cc2cc1NC(=O)c1cnn2cccnc12 [TM-59],10.9
1.69,CN(C)c1cc2nn(C3CCC(CN4CCC[C@H](n5cc6cc(N7CCC(=O)NC7=O)ccc6n5)C4)CC3)cc2cc1NC(=O)c1cnn2cccnc12 (stereo partly shown) [TM-204],–
1.74,CN(C)c1cc2nn([C@H]3CC[C@H](CN4CC[C@H](F)[C@@H](n5cc6ccc(N7CCC(=O)NC7=O)cc6n5)C4)CC3)cc2cc1NC(=O)c1cnn2cccnc12 [TM-213],–
1.12,C[C@H]1CN(C[C@H]2CC[C@H](n3cc4cc(NC(=O)c5cnn6cccnc56)c(N(C)C)cc4n3)CC2)CC[C@@H]1n1cc2ccc(C3CCC(=O)NC3=O)cc2n1 (stereo partly shown) [TM-157],1.46
0.98,CN(C)c1cc2nn([C@H]3CC[C@H](CN4CCC(c5nc6ccc(N7CCC(=O)NC7=O)cc6o5)CC4)CC3)cc2cc1NC(=O)c1cnn2cccnc12 [TM-186],–
< 1,CN(C)c1cc2nn([C@H]3CC[C@H](CN4CC[C@@H](n5cc6cc(N7CCC(=O)NC7=O)c(F)cc6n5)[C@H](F)C4)CC3)cc2cc1NC(=O)c1cnn2cccnc12 [TM-41],3.89
23.3,CN(C)c1cc2nn(C3CCN(C[C@H]4CC[C@H](n5cc6cc(N7CCC(=O)NC7=O)c(F)cc6n5)CC4)CC3)cc2cc1NC(=O)c1cnn2cccnc12 [TM-51],3.14
13.9,CN(C)c1cc2nn([C@H]3CC[C@H](CN4CCC5(CC4)C[C@@H](n4cc6cc(F)c(C7CCC(=O)NC7=O)cc6n4)CO5)CC3)cc2cc1NC(=O)c1cnn2cccnc12 (stereo partly shown) [TM-140],–
0.41,CN(C)c1cc2nn([C@H]3CC[C@H](CN4CC[C@@H](n5cc6cc(N7CCC(=O)NC7=O)ccc6n5)[C@H](F)C4)CC3)cc2cc1NC(=O)c1cnn2cccnc12 [TM-16],4.59
4,CN(C)c1cc2nn([C@H]3CC[C@H](CN4CCC(n5cc6cc(F)c(N7CCC(=O)NC7=O)cc6n5)CC4)CC3)cc2cc1NC(=O)c1cnn2cccnc12 [TM-10],1.34
1.78,CN(C)c1cc2nn([C@H]3CC[C@H](CN4CC[C@H](n5cc6cc(C7CCC(=O)NC7=O)ccc6n5)[C@@H](F)C4)CC3)cc2cc1NC(=O)c1cnn2cccnc12 (stereo partly shown) [TM-168],–
3.82,CN(C)c1cc2nn([C@H]3CC[C@H](CN4C[C@@H]5[C@H](C4)[C@H]5n4cc5ccc(N6CCC(=O)NC6=O)cc5n4)CC3)cc2cc1NC(=O)c1cnn2cccnc12 [TM-182],–
1.79,CN(C)c1cc2nn([C@H]3CC[C@H](CN4C[C@@H](F)[C@H](n5cc6ccc(N7CCC(=O)NC7=O)cc6n5)C4)CC3)cc2cc1NC(=O)c1cnn2cccnc12 [TM-200],–
11,CN(C)c1cc2nn([C@H]3CC[C@H](CN4CCC(c5nc6cc(C7CCC(=O)NC7=O)c(F)cc6o5)CC4)CC3)cc2cc1NC(=O)c1cnn2cccnc12 (stereo partly shown) [TM-147],–
1.21,CN(C)c1cc2nn([C@H]3CC[C@H](CN4CC[C@H](F)[C@@H](n5cc6cc(N7CCC(=O)NC7=O)ccc6n5)C4)CC3)cc2cc1NC(=O)c1cnn2cccnc12 [TM-214],–
